Laboratory results reported in patent publication US20100143265A1, “SYSTEM AND METHOD FOR THE DELIVERY OF A SANITIZING FOAM” (GREEN SOURCE AUTOMATED, LLC, priority 2008, published 2010).

Test: Gas solubility in water / dip solution
Type: physicochemical
Conditions: standard room temperature and 100 psi pressure
Method: Carbon dioxide (CO2) is soluble in water up to 1.45 g/L at 25° C. and 100 kPa. The amount of CO2 that can be dissolved into the dip solution is dependent on the temperature and pressure of the solution. The lower the temperature of the solution the less pressure that is required to saturate the solution with CO2. Conversely, the higher the temperature of the dip solution the more pressure that is required to saturate the solution with CO2.
The system (FIG. 3) was used with nitrous oxide as the propellant/diffusion gas. In an embodiment of the invention, nitrous oxide (N2O) can be used as a propellant/diffusion. N2O is partially soluble in water, but is almost completely soluble in fats and oils (the skin conditioner provided in the cow dip). Under standard room temperature and 100 psi pressure, approximately four volumes of N2O can be dissolved in one volume of the dip solution. The resulting nitrous oxide foam expands to approximately 6 mm in diameter, where the individual bubbles in the foam vary in size from approximately 1 micron to approximately 10 microns. After coalescing, the remaining liquid dries on the teat. It is noted that the amount of N2O that can be dissolved in one volume of dip solution will increase if more conditioners (containing one or more of fats, oils, fatty acids and triglycerides) are used since N2O is almost completely soluble in fats and oils. […]

volumes dissolved (gas and dip solution)	Compound
approximately 4.5 volumes	O=C=O [CO2, Carbon dioxide]
approximately four	[N-]=[N+]=O [Example N2O, nitrous oxide]
